Reference: patent publication US8093231B2, “Sulfonylethyl phosphorodiamidates” (Telik, Inc., priority 2004, dated 2012)
pIC50: −log10 of the molar value. Where two headings read alike, the source gives them in different places.

How the values were obtained:
Assay type in all cases: cell-based, human
MX-1 (breast carcinoma) = test: Cytotoxicity/growth inhibition assay, MX-1; details: read-out: IC50 (MX-1)
Excerpt: (§1) The human cancer cell lines DLD-1 (colorectal adenocarcinoma), LNCap (prostate carcinoma), and OVCAR-3 (ovarian carcinoma) were obtained from the American Type Culture Collection, Manassas, Va., U.S.A., and HL-60 (promyeloid myelocytic leukemia), MX-1 (breast carcinoma), P388, and P388ADR from the National Cancer Institute, Bethesda, Md., U.S.A. Carboplatin, doxorubicin, and melphalan were obtained from Sigma-Aldrich Chemical Company, St. Louis, Mo., U.S.A. The CellTiter-Glo assay kit was obtained from Promega Corporation, Madison, Wis., U.S.A., and the Cellular DNA Cytometric Analysis Reagent Kit from Roche Diagnostics Corporation, Indianapolis, Ind., U.S.A. Lambda DNA was obtained from New England Biolabs, Beverly, Mass., U.S.A., and SYBR-Gold from Molecular Probes, Inc., Eugene, Oreg., U.S.A. The DNeasy Tissue Kit was obtained from Qiagen Inc., Valencia, Calif., U.S.A., and AmpliTaq Gold DNA polymerase and PCR reagents from Applied Biosystems, Foster City, Calif., U.S.A. All products were used in accordance with manufacturer's directions. All assays were conducted in triplicate wells, with dimethyl sulfoxide (DMSO) solvent control. The extent of cell growth was expressed as a percentage of the signal from the solvent control wells.
(§2) Log-phase cells were trypsinized, collected by centrifugation, and resuspended in a small volume of fresh medium, and the density of viable cells was determined following Trypan Blue staining. Cells were diluted in fresh media (3×10^3 cells/mL for MX-1, 3×10^3 cells/mL for DLD-1, and 6×10^3 cells/mL for LNCap cells), the test compounds (concentrations between 0.1 and 200 μM, dissolved in DMSO, 50 μL) added immediately after dilution to achieve a final DMSO concentration of 0.5%, then the suspensions added at 150 μL/well to 96-well plates, and incubated for several hours to allow attachment in the case of adherent cells. The cells were cultured for approximately three doubling times (3 days for MX-1 and 4 days for DLD-1 and LNCap). The cells were then collected by centrifugation, and 100 μL of the culture supernatant was replaced by the CellTiter-Glo reagent. After incubation for 15 minutes at room temperature, and the plate was read with a luminometer.

[1] = system: DLD-1 (colorectal adenocarcinoma); test: Cytotoxicity/growth inhibition assay, DLD-1; details: read-out: IC50 (DLD-1)
Excerpt: as §1, §2

[2] = system: LNCap (prostate carcinoma); test: Cytotoxicity/growth inhibition assay, LNCap; details: read-out: IC50 (LNCap)
Excerpt: as §1, §2

[3] = MX-1 cells, 3 days culture, CellTiter-Glo, 0.1-200 μM tested
[4] = DLD-1 cells, 4 days culture, CellTiter-Glo, 0.1-200 μM tested
[5] = LNCap cells, 4 days culture, CellTiter-Glo, 0.1-200 μM tested

Compound | pIC50 (MX-1 (breast carcinoma); [3]) | pIC50 [1, 4] | pIC50 [2, 5] | pIC50 (MX-1 (breast carcinoma); Homo sapiens, MX1, 72 h) | pIC50 ([1]; Homo sapiens, DLD-1, 96 h) | pIC50 ([2]; Homo sapiens, LNCaP, 96 h)
O=C(CS(=O)(=O)CCOP(=O)(N(CCCl)CCCl)N(CCCl)CCCl)Nc1ccc([N+](=O)[O-])c(C(F)(F)F)c1 [Compound 21A] | 5.38 | 5.55 | 5.20 |  |  | 
O=C(Nc1cc(CS(=O)(=O)CCOP(=O)(N(CCCl)CCCl)N(CCCl)CCCl)cc(CS(=O)(=O)CCOP(=O)(N(CCCl)CCCl)N(CCCl)CCCl)c1)C1CCCNC1 (stereo not drawn) [Compound 21B] | 4.83 | 5.39 | 3.88 |  |  | 
CN1CCN(C(=O)CS(=O)(=O)CCOP(=O)(N(CCCl)CCCl)N(CCCl)CCCl)CC1 [Compound 22A] | 4.63 | 5.08 | 4.41 |  |  | 
O=C(Nc1cc(CS(=O)(=O)CCOP(=O)(N(CCCl)CCCl)N(CCCl)CCCl)cc(CS(=O)(=O)CCOP(=O)(N(CCCl)CCCl)N(CCCl)CCCl)c1)c1cccnc1 [Compound 22B] | 5.15 | 5.60 | 4.39 |  |  | 
O=P(OCCS(=O)(=O)c1cccc2c(S(=O)(=O)CCOP(=O)(N(CCCl)CCCl)N(CCCl)CCCl)cccc12)(N(CCCl)CCCl)N(CCCl)CCCl [Compound 23B, 1,5-di[[2-[[bis[bis(2-chloroethyl)amino]phosphinyl]oxy]ethyl]sulfonyl]naphthalene] |  |  |  | 5.96 | 6.15 | 5.42
O=C(CS(=O)(=O)CCOP(=O)(N(CCCl)CCCl)N(CCCl)CCCl)Nc1ccccn1 [Compound 24A] | 4.95 | 5.26 | 4.92 |  |  | 
CC(C)(C)OC(=O)[C@@H](Cc1ccccc1)NC(=O)CS(=O)(=O)CCOP(=O)(N(CCCl)CCCl)N(CCCl)CCCl [Compound 25A] | 5.25 | 5.43 | 4.72 |  |  | 
O=C(CS(=O)(=O)CCOP(=O)(N(CCCl)CCCl)N(CCCl)CCCl)NC(Cc1ccccc1)C(=O)O (stereo not drawn) [Compound 26A] | 4.53 | 5.08 | 4.11 |  |  | 
CC(C)(C)OC(=O)NCCCC[C@H](NC(=O)CS(=O)(=O)CCOP(=O)(N(CCCl)CCCl)N(CCCl)CCCl)C(=O)OC(C)(C)C [Compound 27A] | 5.21 | 5.44 | 4.81 |  |  | 
CN(CC(=O)OC(C)(C)C)C(=O)CS(=O)(=O)CCOP(=O)(N(CCCl)CCCl)N(CCCl)CCCl [Compound 28A] | 5.05 | 5.29 | 4.45 |  |  | 
O=C(O)CCS(=O)(=O)CCOP(=O)(N(CCCl)CCCl)N(CCCl)CCCl [Compound 29A] | 4.64 | 4.94 | 4.18 |  |  | 
COC(=O)c1ccc(NC(=O)CS(=O)(=O)CCOP(=O)(N(CCCl)CCCl)N(CCCl)CCCl)cc1 [Compound 30A] | 5.04 | 5.19 | 4.88 |  |  | 
N[C@@H](CCCNC(=O)CS(=O)(=O)CCOP(=O)(N(CCCl)CCCl)N(CCCl)CCCl)C(=O)O [Compound 32A] | 4.39 | 4.95 | 3.75 |  |  | 
O=C(CS(=O)(=O)CCOP(=O)(N(CCCl)CCCl)N(CCCl)CCCl)Nc1ccc(C(=O)O)cc1 [Compound 33A] | 4.69 | 5.07 | 4.01 |  |  | 
CN(CC(=O)O)C(=O)CS(=O)(=O)CCOP(=O)(N(CCCl)CCCl)N(CCCl)CCCl [Compound 34A] | 5.05 | 4.92 | 4.01 |  |  | 
CC(C)(C)OC(=O)CCNC(=O)CS(=O)(=O)CCOP(=O)(N(CCCl)CCCl)N(CCCl)CCCl [Compound 37A] | 5.10 | 5.10 | 4.54 |  |  | 
CC(C)(C)OC(=O)CNC(=O)CS(=O)(=O)CCOP(=O)(N(CCCl)CCCl)N(CCCl)CCCl [Compound 38A] | 5.10 | 5.12 | 4.63 |  |  | 
CC(=O)N[C@@H](CS(=O)(=O)CCOP(=O)(N(CCCl)CCCl)N(CCCl)CCCl)C(=O)O [Compound 73A] | 4.53 | 4.74 | 4.14 |  |  | 
CC(=O)NC(C(=O)O)C(C)(C)S(=O)(=O)CCOP(=O)(N(CCCl)CCCl)N(CCCl)CCCl (stereo not drawn) [Compound 74A] | 4.33 | 4.57 | ≤ 3.70 |  |  | 
